Where two headings read alike, the source gives them in different places.
How the values were obtained:
[1] = molecular target: KRas G12C mutant (Homo sapiens (Human), UniProt P01116, G12C); test: Ras GTP Binding Domain Inhibition Assay, KRas G12C mutant
Experimental: (§1) A Ras Superfamily Activity Assay (as disclosed in International Application No. PCT/US2018/038613, filed Jun. 20, 2018, which is incorporated by reference in its entirety) was used as a specific assay to evaluate compounds against the following for the following Ras Superfamily proteins: KRas wild type, KRas Q61H mutant, KRas G12C mutant, KRas G12D mutant, Rac-1, and Rho-A.
(§2) Buffer-I: • 25 mM Tris-HCl, pH 7.4 • 27 mM KCl • 137 mM NaCl • 1 mM MgCl2 • 1 mM DTT
(§3) Buffer-II: • 50 mM Tris-HCl, pH 7.0 • 1 mM MgCl2 • 1 mM DTT
(§4) The small GTPases proteins: KRas wild type. KRas Q61H mutant, KRas G12C mutant, KRas G12D mutants, Rac-1, and Rho-A were expressed as His-tagged proteins. In addition, the Guanosine nucleotide Exchange Factor (GEF) Sos protein (residues 556-1049) was expressed as a His-tagged protein. In cells, the guanine nucleotide exchange factor Sos protein promotes activation of Ras proteins by stimulating an exchange of GDP for GTP. The inclusion of Sos to the Ras GTP binding domain inhibition assay may be considered as an alternative representation of physiological cellular conditions for evaluating the inhibitory activity of some of the tested small molecules.
(§5) For the assay, all purified small GTPases proteins were diluted in Buffer-I or Buffer-II to a final concentration of 10-30 μg/mL. 200 μL of each diluted protein was added to a nickel-coated 96-well plate and incubated overnight at 4° C. Then the protein solution was discarded and 200 μL of Buffer-I or Buffer-II was added to each well in the presence of 1% DMSO. Compounds to be tested were added to the protein-coated wells at final concentration of 20 μM, and incubated for 3 hours at room temperature with and without 10-30 μg/mL of Sos added to the final hour of the incubation. When performing IC50 measurements a serial dilution of all tested concentrations was added. Then Cy3-GTP or Cy5-GTP was added to each well to a final concentration of 100 nM. The labeled GTP was incubated for 45 minutes at room temperature. Following GTP incubation, wells were washed 3× in Buffer-I or Buffer-II and 200 μL of Buffer-I or Buffer-II was added to each well. Following washes, the amount of bound labeled-GTP was measured using a SpectraMax M3 (Molecular Devices).

[2] = molecular target: KRas wild type (Homo sapiens (Human), UniProt P01116); test: Ras GTP Binding Domain Inhibition Assay, KRas wild type
Experimental: as §1, §2, §3, §4, §5

[3] = molecular target: Rac-1 (Homo sapiens (Human), UniProt P63000); test: Ras GTP Binding Domain Inhibition Assay, Rac-1; conditions: without SOS, read-out: Rac-1: % inh.
Experimental: as §1, §2, §3, §4, §5

[4] = molecular target: KRas G12D mutant (Homo sapiens (Human), UniProt P01116, G12D); test: Ras GTP Binding Domain Inhibition Assay, KRas G12D mutant; conditions: for inhibition at 20 µM: Table 7; for KRas G12D mutant + SOS: % inh. / KRas G12D mutant: % inh.: 20 uM, Table 8
Experimental: as §1, §2, §3, §4, §5

[5] = tested on: Smad2/3 phosphorylation; test: Phospho-Smad2/3 Inhibition Assay in Panc-1 (western blot); assay type: cell-based; conditions: Homo sapiens; 10 μM, 3 hours; PANC-1 stimulated with 10 ng/ml TGF-b1 for 1 hour; read-out: % inh of Smad2/3 phosphorylation in PANC-1
Experimental: Cell lines: Human tumor-derived pancreatic cancer cell line Panc-1 and mouse muscle myoblast C2C12 were purchased from American Type Culture Collection and grown in complete DMEM-High Glucose, supplemented with penicillin (100 U/mL), streptomycin (100 μg/mL), and 10% heat-inactivated FBS at 37° C. in a humidified incubator with 5% CO2.
Method: Cells were plated at 350000 cells/well density in a 12-well plate, allowed 3 hours to adhere to the plate, then starved in the appropriate medium in the presence of 0.5% FBS overnight. The small molecules to be tested were added to the cells in the final concentration of 10 μM in the presence of 0.3% DMSO for 3 hours incubation at 37° C. For IC50 value determination, serial dilutions of compounds were added to cells under the same conditions. Next, Panc-1 cells were stimulated with 10 ng/ml TGF-b1 for 1 hour, and C2C12 cells were stimulated with 10 ng/ml TGF-b1 for 20 minutes (recombinant human TGF-b1, R&D Systems). After stimulation cells were lysed with lysis buffer containing 1% Triton X-100, EDTA, and Halt™ Protease & Phosphatase Inhibitor Cocktail (Thermo Scientific). Protein concentration was assessed by BCA protein assay (Thermo Scientific). Phosphorylation level of Smad2/Smad3 was determined by western blot.
Western blot protocol: Equal amounts of protein (15-50 μg) were separated by SDS-PAGE and transferred to nitrocellulose membranes (Invitrogen by Thermo Fisher Scientific). The membrane was stained with Ponceau S Stain (Boston BioProducts) to verify uniform protein loading. Membranes were blocked with 10% milk and phosphorylation levels of Smad2/Smad3 were assessed by incubating overnight at 4° C. with the following antibodies: Phospho-Smad2 (Ser465/467) and Phosph-Smad3 (Ser423/425), both from Cell Signaling Technology. Then the membranes were incubated with HRP-conjugated secondary antibody (Jackson Immunoresearch, West Grove, PA). Bands were incubated in Amersham ECL Prime Western Blotting Detection Reagent (GE Healthcare) and visualized using the ChemiDoc MP imaging system (Bio-Rad).

[6] = + SOS, read-out: KRas G12C mutant + SOS: % inh.
[7] = without SOS, read-out: KRas G12C mutant: % inh.
[8] = + SOS, read-out: KRas wild type + SOS: % inh.
[9] = without SOS, read-out: KRas wild type: % inh.
[10] = + SOS, read-out: KRas G12D mutant + SOS: % inh.
[11] = without SOS, read-out: KRas G12D mutant: % inh.

Chain of KRas G12C mutant (P01116 other isoform, or with tags, fused parts or gaps G12C): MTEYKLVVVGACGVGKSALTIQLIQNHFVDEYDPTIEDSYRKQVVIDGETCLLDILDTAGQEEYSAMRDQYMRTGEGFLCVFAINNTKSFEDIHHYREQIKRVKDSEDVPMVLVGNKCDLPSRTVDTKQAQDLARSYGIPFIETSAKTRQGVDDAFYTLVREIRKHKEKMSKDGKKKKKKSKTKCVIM
Chain of KRas wild type (P01116 other isoform, or with tags, fused parts or gaps): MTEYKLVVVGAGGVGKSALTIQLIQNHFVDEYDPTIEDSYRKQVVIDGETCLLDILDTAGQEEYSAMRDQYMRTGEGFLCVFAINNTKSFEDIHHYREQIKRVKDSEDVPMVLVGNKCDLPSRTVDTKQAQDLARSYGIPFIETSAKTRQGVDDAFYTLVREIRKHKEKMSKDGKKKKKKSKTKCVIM
Chain of KRas G12D mutant (P01116 other isoform, or with tags, fused parts or gaps G12D): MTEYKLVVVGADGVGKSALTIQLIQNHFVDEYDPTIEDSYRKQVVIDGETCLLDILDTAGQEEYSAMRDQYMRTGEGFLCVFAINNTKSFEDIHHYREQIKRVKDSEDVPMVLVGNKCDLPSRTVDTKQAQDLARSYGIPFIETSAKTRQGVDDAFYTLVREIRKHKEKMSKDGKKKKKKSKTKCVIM

Row | Compound | inhibition at 20 µM [1, 6] | inhibition at 20 µM [1, 7] | inhibition at 20 µM [2, 8] | inhibition at 20 µM [2, 9] | inhibition at 20 µM [3] | inhibition at 20 µM [4, 10] | KRas G12D mutant + SOS: % inh. ([4]; + SOS) | inhibition at 20 µM [4, 11] | KRas G12D mutant: % inh. ([4]; without SOS) | inhibition at 10 µM [5]
1 | COc1cccc(Nc2nc(-c3nccn3C)nc3sc(-c4ccn(C(C)C)n4)c(C)c23)n1 [Compound 18, 6-(1-Isopropyl-1H-pyrazol-3-yl)-N-(6-methoxypyridin-2-yl)-5-methyl-2-(1-methyl-1H-imidazol-2-yl)thieno[2,3-d]pyrimidin-4-amine] | 46 to 75% | 46 to 75% | 46 to 75% | 46 to 75% | 46 to 75% | 46 to 75% | C (C = 46-75% inhibition) | 76 to 100% | D (D = 76-100% inhibition) | 46 to 75%
2 | COCCNc1nc(-c2nccn2C)nc2sc(-c3ccccc3)c(-c3ccccc3)c12 [Compound 1, N-(2-Methoxyethyl)-2-(1-methyl-1H-imidazol-2-yl)-5,6-diphenylthieno[2,3-d]pyrimidin-4-amine] | – | 46 to 75% | 1 to 25% | 1 to 25% | 76 to 100% | 1 to 25% | A (A = 1-25% inhibition) | 76 to 100% | D (D = 76-100% inhibition) | 46 to 75%
3 | COc1cccc(Nc2nc(-c3nccn3C)nc3sc(-c4ccn(C(C)C)n4)c(C)c23)c1 [Compound 17, 6-(1-Isopropyl-1H-pyrazol-3-yl)-N-(3-methoxyphenyl)-5-methyl-2-(1-methyl-1H-imidazol-2-yl)thieno[2,3-d]pyrimidin-4-amine] | 76 to 100% | 46 to 75% | 46 to 75% | 26 to 45% | 26 to 45% | 46 to 75% | C (C = 46-75% inhibition) | 46 to 75% | C (C = 46-75% inhibition) | 46 to 75%
4 | COc1nccc(-c2sc3nc(-c4nccn4C)nc(N[C@H]4C[C@H](OC)C4)c3c2-c2ccccc2)c1F [Compound 45, 6-(3-Fluoro-2-methoxypyridin-4-yl)-N-((1r,3r)-3-methoxycyclobutyl)-2-(1-methyl-1H-imidazol-2-yl)-5-phenylthieno[2,3-d]pyrimidin-4-amine] | 76 to 100% | 26 to 45% | 76 to 100% | 46 to 75% | 46 to 75% | 46 to 75% | C (C = 46-75% inhibition) | 46 to 75% | C (C = 46-75% inhibition) | 76 to 100%
5 | Cc1c(-c2ccn(C(C)C)n2)sc2nc(-c3nccn3C)nc(NCC3COCCN3C)c12 (racemic) [Compound 24, rac-6-(1-Isopropyl-1H-pyrazol-3-yl)-5-methyl-2-(1-methyl-1H-imidazol-2-yl)-N-((4-methylmorpholin-3-yl)methyl)thieno[2,3-d]pyrimidin-4-amine] | 76 to 100% | 46 to 75% | 76 to 100% | 26 to 45% | 76 to 100% | 76 to 100% | D (D = 76-100% inhibition) | 46 to 75% | C (C = 46-75% inhibition) | 0%

Further lines, with some results ahead:

Row | inhibition at 20 µM [1, 6] | inhibition at 20 µM [1, 7] | inhibition at 20 µM [2, 8] | inhibition at 20 µM [2, 9] | inhibition at 20 µM [3] | inhibition at 20 µM [4, 10] | KRas G12D mutant + SOS: % inh. ([4]; + SOS) | inhibition at 20 µM [4, 11] | KRas G12D mutant: % inh. ([4]; without SOS) | Compound | inhibition at 10 µM [5]
6 | 76 to 100% | 76 to 100% | 76 to 100% | 76 to 100% | 46 to 75% | 76 to 100% | D (D = 76-100% inhibition) | 76 to 100% | D (D = 76-100% inhibition) | COCCO[C@H]1CC[C@@H](Nc2nc(-c3nccn3C)nc3sc(-c4ccn(C(C)C)n4)c(C)c23)C1 (racemic) [Compound 20, rac-6-(1-Isopropyl-1H-pyrazol-3-yl)-N-((1R,3S)-3-(2-methoxyethoxy)cyclopentyl)-5-methyl-2-(1-methyl-1H-imidazol-2-yl)thieno[2,3-d]pyrimidin-4-amine] | 1 to 25%
7 | 76 to 100% | 46 to 75% | 76 to 100% | 46 to 75% | 26 to 45% | 76 to 100% | D (D = 76-100% inhibition) | 46 to 75% | C (C = 46-75% inhibition) | COc1cccc(-c2sc3nc(-c4nccn4C)nc(N[C@H]4C[C@H](OC)C4)c3c2-c2ccccc2)c1F [Compound 40, 6-(2-Fluoro-3-methoxyphenyl)-N-((1r,3r)-3-methoxycyclobutyl)-2-(1-methyl-1H-imidazol-2-yl)-5-phenylthieno[2,3-d]pyrimidin-4-amine] | 76 to 100%
8 | 1 to 25% | 0% | 1 to 25% | 1 to 25% | 0% | 0% | 0 (0 = 0% inhibition) | 1 to 25% | A (A = 1-25% inhibition) | COc1cc(Cn2c(-c3nccn3C)nc3sc(-c4ccn(C(C)C)n4)c(C)c3c2=O)ncn1 [Compound 35, 6-(1-Isopropyl-1H-pyrazol-3-yl)-3-((6-methoxypyrimidin-4-yl)methyl)-5-methyl-2-(1-methyl-1H-imidazol-2-yl)thieno[2,3-d]pyrimidin-4(3H)-one] | 0%
9 | 0% | 0% | 1 to 25% | 1 to 25% | 0% | 0% | 0 (0 = 0% inhibition) | 0% | 0 (0 = 0% inhibition) | COCCCn1c(-c2nccn2C)nc2sc(-c3ccn(C(C)C)n3)c(C)c2c1=O [Compound 31, 6-(1-Isopropyl-1H-pyrazol-3-yl)-3-(3-methoxypropyl)-5-methyl-2-(1-methyl-1H-imidazol-2-yl)thieno[2,3-d]pyrimidin-4(3H)-one] | 0%
